Assay [1] concerns the target 72 kDa type IV collagenase (Homo sapiens, UniProt P08253). Kind of assay: Dose Response validation of uHTS RPN11 inhibitor hits using a MMP-2 Fluorescence assay. The class given is functional.
The target of assay [2] is Prothrombin (Bos taurus, UniProt P00735). As to the kind of experiment: thrombin protease inhibitors – biochemical, fluorescence polarization, uHTS hits, dose response (AID 602369). It is filed as functional. (In general: Fluorescence polarisation rises when a labelled molecule tumbles more slowly, as on binding a larger partner.)
Assay [3] addresses Nonstructural protein 1 (Influenza A virus, UniProt Q194T2). The class given is functional, Influenza A virus (A/California/07/2009(H1N1)).
Assay [4] deals with T1, High affinity choline transporter 1 (Homo sapiens, UniProt Q9GZV3).
T1 sequence (Q9GZV3 whole entry): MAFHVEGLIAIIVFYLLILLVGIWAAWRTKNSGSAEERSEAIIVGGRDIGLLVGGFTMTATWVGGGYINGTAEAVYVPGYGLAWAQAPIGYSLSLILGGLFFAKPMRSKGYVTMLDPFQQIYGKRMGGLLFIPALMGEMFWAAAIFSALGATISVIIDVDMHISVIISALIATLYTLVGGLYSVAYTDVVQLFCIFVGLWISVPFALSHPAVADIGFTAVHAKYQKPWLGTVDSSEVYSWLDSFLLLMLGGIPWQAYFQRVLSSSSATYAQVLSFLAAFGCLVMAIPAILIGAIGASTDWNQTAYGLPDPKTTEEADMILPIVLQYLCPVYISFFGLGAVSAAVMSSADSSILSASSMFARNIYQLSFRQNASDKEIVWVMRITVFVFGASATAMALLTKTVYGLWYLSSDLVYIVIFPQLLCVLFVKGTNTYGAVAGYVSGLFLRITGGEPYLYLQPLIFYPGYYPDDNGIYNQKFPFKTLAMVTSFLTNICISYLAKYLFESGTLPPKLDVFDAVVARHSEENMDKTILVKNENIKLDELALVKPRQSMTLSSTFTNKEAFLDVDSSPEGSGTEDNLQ
As to the kind of experiment: human choline transporter blockers, potency – cell-based, 5-point CRC, membrane potential dye, dose response (AID 504840). It is filed as functional.

For assay [5], the target named is 26S proteasome non-ATPase regulatory subunit 14 (Homo sapiens, UniProt O00487). As to the kind of experiment: inhibition of proteasome subunit RPN11 – biochemical, fluorescence polarization, uHTS hits, confirmation (AID 602368). It is filed as functional.
26S proteasome non-ATPase regulatory subunit 14, sequence (O00487 whole entry): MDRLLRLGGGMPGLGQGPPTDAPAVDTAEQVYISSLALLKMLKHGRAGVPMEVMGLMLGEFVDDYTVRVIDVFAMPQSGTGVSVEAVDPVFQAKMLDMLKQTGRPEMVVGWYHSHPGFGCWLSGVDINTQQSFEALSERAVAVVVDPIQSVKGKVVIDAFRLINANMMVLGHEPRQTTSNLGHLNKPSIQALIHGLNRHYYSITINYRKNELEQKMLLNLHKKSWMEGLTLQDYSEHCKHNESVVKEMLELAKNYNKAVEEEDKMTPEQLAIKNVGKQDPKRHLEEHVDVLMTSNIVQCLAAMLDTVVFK
The target of assay [6] is T2, Sentrin-specific protease 6 (Homo sapiens, UniProt Q9GZR1).
T2 sequence (Q9GZR1 whole entry): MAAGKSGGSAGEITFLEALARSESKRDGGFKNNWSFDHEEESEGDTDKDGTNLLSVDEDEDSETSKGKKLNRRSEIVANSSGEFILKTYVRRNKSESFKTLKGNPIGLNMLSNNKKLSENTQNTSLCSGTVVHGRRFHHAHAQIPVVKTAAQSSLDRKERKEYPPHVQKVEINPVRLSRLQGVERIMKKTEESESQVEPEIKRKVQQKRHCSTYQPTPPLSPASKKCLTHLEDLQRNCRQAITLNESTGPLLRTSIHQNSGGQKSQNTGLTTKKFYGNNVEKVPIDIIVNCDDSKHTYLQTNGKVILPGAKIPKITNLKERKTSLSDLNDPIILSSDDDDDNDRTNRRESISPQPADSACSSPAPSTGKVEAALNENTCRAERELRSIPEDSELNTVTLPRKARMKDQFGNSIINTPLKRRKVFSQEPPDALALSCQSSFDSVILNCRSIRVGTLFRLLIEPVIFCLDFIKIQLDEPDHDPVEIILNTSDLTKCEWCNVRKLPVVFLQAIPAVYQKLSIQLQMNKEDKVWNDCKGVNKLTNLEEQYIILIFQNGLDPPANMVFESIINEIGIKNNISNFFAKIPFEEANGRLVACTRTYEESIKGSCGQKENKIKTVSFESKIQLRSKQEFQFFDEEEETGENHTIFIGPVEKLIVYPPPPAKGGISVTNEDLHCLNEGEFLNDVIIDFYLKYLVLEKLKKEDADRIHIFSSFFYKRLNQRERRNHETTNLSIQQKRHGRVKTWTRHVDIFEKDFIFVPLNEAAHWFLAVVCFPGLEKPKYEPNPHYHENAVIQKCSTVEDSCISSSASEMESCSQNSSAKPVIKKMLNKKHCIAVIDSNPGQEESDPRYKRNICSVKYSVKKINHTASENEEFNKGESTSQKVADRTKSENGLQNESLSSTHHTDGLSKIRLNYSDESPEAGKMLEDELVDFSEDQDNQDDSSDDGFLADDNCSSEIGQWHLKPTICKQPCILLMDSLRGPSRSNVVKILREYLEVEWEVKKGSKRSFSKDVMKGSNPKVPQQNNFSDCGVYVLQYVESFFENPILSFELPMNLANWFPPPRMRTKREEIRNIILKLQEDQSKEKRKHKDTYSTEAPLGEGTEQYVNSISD
Kind of assay: SAR Analysis of small molecule inhibitors of Sentrin-specific protease 6 (SENP6) using a Luminescent assay. [Related pubchem assays (depositor defined):AID2582, AID2599]. The class given is functional.

In assay [7] the target is T3, Sentrin-specific protease 8 (Homo sapiens, UniProt Q96LD8).
T3 sequence (Q96LD8 whole entry): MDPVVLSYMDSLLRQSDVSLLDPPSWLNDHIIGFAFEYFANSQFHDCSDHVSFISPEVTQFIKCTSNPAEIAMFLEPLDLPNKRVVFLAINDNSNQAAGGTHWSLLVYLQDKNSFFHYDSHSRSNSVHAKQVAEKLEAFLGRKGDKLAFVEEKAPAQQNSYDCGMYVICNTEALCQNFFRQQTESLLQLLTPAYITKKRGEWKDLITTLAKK
Kind of assay: inhibition of human SENP8 cleavage activity – biochemical, luminescence, SAR follow-up (AID 504501). The class given is functional.

Assay [8] deals with T4, Sentrin-specific protease 7 (Homo sapiens, UniProt Q9BQF6).
T4 sequence (Q9BQF6 whole entry): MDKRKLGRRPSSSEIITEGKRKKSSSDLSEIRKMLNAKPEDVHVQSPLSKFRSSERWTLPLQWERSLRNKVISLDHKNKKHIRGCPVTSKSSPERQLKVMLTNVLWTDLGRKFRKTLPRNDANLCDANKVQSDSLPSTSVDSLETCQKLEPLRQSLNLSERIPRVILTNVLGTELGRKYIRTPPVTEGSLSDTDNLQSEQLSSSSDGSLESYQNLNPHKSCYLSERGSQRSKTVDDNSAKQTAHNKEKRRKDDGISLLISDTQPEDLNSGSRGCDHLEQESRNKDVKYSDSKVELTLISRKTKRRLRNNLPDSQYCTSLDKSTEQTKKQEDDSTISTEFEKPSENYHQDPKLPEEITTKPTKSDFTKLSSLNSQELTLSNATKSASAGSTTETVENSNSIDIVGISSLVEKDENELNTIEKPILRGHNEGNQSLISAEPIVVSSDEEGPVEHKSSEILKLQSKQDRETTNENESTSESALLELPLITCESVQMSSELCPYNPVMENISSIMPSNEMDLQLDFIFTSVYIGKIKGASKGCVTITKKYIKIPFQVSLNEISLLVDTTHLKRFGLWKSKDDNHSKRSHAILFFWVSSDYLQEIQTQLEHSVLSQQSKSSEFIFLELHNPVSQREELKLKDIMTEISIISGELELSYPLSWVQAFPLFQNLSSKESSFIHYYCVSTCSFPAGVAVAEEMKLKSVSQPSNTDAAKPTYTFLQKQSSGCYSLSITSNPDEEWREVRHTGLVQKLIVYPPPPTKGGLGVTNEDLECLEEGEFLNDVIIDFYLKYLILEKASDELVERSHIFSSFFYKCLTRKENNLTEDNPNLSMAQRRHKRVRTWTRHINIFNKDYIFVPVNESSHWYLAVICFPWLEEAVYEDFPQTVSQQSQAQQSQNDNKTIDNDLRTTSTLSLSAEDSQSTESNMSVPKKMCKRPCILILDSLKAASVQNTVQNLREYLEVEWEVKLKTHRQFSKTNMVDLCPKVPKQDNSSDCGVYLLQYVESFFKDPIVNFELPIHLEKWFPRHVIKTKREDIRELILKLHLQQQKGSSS
As to the kind of experiment: inhibition of human SENP7 cleavage activity – biochemical, luminescence, SAR follow-up (AID 504497). The class given is functional.

The target in assay [9] is T5, Caspase-3 (Homo sapiens, UniProt P42574).
T5 sequence (P42574 whole entry): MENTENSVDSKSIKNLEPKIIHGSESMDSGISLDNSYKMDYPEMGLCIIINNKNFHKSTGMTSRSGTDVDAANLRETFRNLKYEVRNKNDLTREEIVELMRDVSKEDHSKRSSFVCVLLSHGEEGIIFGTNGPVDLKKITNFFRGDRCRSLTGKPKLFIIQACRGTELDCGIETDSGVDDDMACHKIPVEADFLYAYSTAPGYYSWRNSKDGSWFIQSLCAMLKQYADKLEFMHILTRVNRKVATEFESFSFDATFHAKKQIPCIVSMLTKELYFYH
As to the kind of experiment: SAR Analysis of small molecule inhibitors of Sentrin-specific proteases (SENPs) using a Caspase-3 Selectivity assay. [Related pubchem assays (depositor defined):AID2540, AID2599, AID434973, AID489001]. The class given is functional.

A short description of assay [10]: cAMP pathway inhibition in counterscreen cell line – TR-FRET cAMP detection, counter-screen for MC4R biased antagonist project, dose response (AID 602305).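 Note: U2OS cells stimulated with forskolin near its EC80 as the cAMP inducer; potency is for inhibition of forskolin-stimulated cAMP signaling.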 It is filed as functional, cell-based.
Assay [11] addresses T6, Short transient receptor potential channel 4 (Mus musculus, UniProt Q9QUQ5).
T6 sequence (Q9QUQ5 whole entry): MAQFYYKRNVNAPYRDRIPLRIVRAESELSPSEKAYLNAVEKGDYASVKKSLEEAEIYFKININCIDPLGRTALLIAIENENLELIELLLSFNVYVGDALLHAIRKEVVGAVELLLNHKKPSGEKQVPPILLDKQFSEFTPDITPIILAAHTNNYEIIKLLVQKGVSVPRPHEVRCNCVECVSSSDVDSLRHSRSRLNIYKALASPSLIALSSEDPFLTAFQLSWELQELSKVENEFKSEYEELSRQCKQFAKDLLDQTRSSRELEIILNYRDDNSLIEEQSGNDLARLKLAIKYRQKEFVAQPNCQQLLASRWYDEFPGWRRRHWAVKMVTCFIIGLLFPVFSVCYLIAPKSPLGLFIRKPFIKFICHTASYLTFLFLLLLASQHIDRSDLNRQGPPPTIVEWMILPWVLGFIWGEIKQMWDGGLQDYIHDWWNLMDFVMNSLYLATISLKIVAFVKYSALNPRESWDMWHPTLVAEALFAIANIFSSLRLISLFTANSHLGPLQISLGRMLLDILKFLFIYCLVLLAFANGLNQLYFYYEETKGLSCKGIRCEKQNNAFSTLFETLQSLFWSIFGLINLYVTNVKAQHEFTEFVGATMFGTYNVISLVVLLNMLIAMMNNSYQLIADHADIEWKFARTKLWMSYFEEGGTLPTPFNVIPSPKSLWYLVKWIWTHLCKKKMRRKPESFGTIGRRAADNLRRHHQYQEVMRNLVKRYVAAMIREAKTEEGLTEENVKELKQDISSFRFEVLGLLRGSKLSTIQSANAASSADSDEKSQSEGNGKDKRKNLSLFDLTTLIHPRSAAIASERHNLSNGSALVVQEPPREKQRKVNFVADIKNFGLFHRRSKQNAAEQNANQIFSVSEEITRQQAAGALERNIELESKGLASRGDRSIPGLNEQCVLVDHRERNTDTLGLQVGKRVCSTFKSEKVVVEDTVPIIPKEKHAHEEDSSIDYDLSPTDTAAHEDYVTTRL
As to the kind of experiment: calcium entry via TRPC4 opening agents – cell-based, HEK293 TRPC4/mu-opioid, Fluo-4 calcium, dose response (AID 434937). It is filed as functional.

In assay [12] the target is Melanocortin receptor 4 (Homo sapiens, UniProt P32245). As to the kind of experiment: inhibitors of MC4R cAMP signaling – cell-based, TR-FRET, biased antagonists, dose response (AID 602298).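 Note: antagonist potency against agonist-stimulated cAMP production.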 The class given is functional.
Melanocortin receptor 4, sequence (P32245 whole entry): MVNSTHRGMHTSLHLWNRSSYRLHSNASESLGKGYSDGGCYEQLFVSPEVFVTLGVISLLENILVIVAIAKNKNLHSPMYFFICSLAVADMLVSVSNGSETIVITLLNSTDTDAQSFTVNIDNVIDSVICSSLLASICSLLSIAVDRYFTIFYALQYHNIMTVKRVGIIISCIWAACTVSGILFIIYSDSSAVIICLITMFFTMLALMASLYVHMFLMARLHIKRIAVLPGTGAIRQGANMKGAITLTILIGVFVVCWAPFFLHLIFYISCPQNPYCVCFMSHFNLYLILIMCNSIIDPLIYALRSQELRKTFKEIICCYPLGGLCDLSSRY

Among the data in ChEMBL document CHEMBL1201862, “PubChem BioAssay data set” (2004) are IC50 and EC50 values, retold here.

In general, IC50 refers to the concentration at which inhibition is half-maximal. As usually defined, the EC50 is the concentration needed to bring the measured effect to its halfway point.

Activity calls are given as the source filed them.

72 kDa type IV collagenase, sequence (P08253 whole entry): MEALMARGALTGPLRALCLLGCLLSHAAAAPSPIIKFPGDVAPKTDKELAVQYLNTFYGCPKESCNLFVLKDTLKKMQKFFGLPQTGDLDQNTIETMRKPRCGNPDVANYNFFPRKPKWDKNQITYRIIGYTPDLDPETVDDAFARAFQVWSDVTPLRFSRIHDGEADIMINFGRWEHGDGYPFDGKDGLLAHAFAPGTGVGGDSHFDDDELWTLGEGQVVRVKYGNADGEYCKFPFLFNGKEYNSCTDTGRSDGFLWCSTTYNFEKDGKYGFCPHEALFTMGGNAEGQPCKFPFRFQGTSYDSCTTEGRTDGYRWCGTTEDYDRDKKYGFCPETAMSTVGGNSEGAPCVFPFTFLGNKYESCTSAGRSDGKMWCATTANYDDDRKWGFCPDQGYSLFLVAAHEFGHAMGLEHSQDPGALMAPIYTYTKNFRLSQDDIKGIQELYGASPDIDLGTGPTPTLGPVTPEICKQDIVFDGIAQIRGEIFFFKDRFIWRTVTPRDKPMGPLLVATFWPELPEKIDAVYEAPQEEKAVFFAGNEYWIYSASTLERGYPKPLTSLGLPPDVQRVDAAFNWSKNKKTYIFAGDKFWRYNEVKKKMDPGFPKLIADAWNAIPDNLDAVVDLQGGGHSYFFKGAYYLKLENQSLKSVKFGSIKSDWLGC
Nonstructural protein 1, sequence (Q194T2 whole entry): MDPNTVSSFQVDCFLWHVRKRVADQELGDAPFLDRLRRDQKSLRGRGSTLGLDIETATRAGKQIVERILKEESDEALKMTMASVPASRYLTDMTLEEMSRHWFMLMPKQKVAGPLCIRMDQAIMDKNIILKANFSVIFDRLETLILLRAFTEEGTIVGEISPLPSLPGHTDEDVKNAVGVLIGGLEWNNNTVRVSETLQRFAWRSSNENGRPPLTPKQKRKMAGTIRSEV

Consider `COc1cccc(-c2nn(-c3ccccc3)cc2/C=C(\C#N)C(=O)NCCCn2ccnc2)c1`, for which the IC50 is > 100 µM (inactive) in assay [1]; 44.4 µM (active) in assay [2]; 74.2 µM (active) in assay [3]; 10.5 µM (active) in [4]; 38.9 µM (active) in assay [5].
As to `C(=N/Nc1cc(N2CCCCCC2)nc(N2CCCCCC2)n1)/c1ccccc1`, the concentration for half-maximal inhibition (IC50) was 64.6 µM (active) in assay [6], > 99 µM (inactive) in assay [7], > 99 µM (inactive) in assay [8] and > 99 µM (inactive) in assay [9].
On to `Cc1nc(SCc2nc3cc(Cl)c(F)cc3[nH]2)c2oc3ccccc3c2n1`, for which the IC50 is > 100 µM (inactive) in assay [1], 42.5 µM (active) in [2] and 38.1 µM (active) in assay [5].
Taken in the same sequence, the figures for `CCOC(=O)c1c(C)[nH]c(C(=O)OCC(=O)N(CC(C)C)c2c(N)n(Cc3ccccc3)c(=O)[nH]c2=O)c1C` were > 100 µM (inactive), 33.7 µM (active) and 31.8 µM (active).
With `CN(C)S(=O)(=O)c1ccc2nc(NC(=O)c3sc4ccccc4c3Cl)sc2c1`, the IC50 in [6], in assay [7], in assay [8] and in assay [9] was > 99 µM (inactive) in each case.
Turning to `CC(C)C1CC(CCNCc2ccc3c(c2)OCO3)(c2ccccc2)CCO1` (configuration not stated), the IC50 in [10] and in [12] was > 64.6 µM (inactive) throughout. Besides, in assay [11], the EC50 is 5.96 µM (active).
